Test results: patent publication US7723020B2, “Use of azetidinone compounds” (Schering Corporation, priority 1999, dated 2010)

Columns and labels:
cholesterol absorption = assay: Acute in vivo cholesterol absorption model: inhibition of 14C-cholesterol absorption into plasma, intestinally cannulated rats; set-up: species or system Male Sprague-Dawley rats; conditions: rat, relative to bile vehicle control
Description: Male Sprague-Dawley rats weighing 300-400 g were used. After an overnight fast, rats were anesthetized (Inactin, […] i.p.) for the duration of each study and were fitted with a cannula into the small intestine just below the pyloric valve. For the cannulation of the small intestine, a catheter (Surflo® i.v. catheter (18GX2″), Terumo Medical Corporation; Elkton, Md.) was inserted through the fundus of the stomach, advanced 1 cm beyond the pylorus, and ligated in place. Compounds were mixed in rat bile and delivered by bolus injection (1 mL) via the intestinal catheter into the small intestine.
One hour after the bile doses were delivered, three mL of an emulsion consisting of 2.23 mg/mL L-phosphatidylcholine and 11.8 mg/mL triolein in 19 mM sodium taurocholate (Sigma; St. Louis, Mo.) buffer (pH 6.4) containing 3 mg cholesterol and 1 mCi ^14C-cholesterol (NEN; Boston, Mass.) was delivered to each rat as a bolus via the intestinal cannula. Ninety minutes after the cholesterol emulsion was delivered, the rats were euthanized. Blood was collected and plasma was separated by centrifugation at 2000 rpm for 15 min at 4° C. Triplicate aliquots of plasma were analyzed ^14C radioactivity and inhibition of cholesterol absorption relative to bile vehicle control rats was determined.

[1] = target: T1, Scavenger receptor, class B, type I (SR-BI) (Rattus norvegicus, UniProt P97943); assay: Expression cloning of rat intestinal epithelial cDNA library in BW5147 cells, stained with fluorescent compound, FACS; type: cell-based; conditions: two clones from two independent cDNA expression libraries, FACS-positive BW5147 cells
T1 construct: expressed in transfected cells; host or cells: mouse cell line BW5147, infected with pMX retrovirus packaged in BOSC23
T1 sequence (P97943 1-509): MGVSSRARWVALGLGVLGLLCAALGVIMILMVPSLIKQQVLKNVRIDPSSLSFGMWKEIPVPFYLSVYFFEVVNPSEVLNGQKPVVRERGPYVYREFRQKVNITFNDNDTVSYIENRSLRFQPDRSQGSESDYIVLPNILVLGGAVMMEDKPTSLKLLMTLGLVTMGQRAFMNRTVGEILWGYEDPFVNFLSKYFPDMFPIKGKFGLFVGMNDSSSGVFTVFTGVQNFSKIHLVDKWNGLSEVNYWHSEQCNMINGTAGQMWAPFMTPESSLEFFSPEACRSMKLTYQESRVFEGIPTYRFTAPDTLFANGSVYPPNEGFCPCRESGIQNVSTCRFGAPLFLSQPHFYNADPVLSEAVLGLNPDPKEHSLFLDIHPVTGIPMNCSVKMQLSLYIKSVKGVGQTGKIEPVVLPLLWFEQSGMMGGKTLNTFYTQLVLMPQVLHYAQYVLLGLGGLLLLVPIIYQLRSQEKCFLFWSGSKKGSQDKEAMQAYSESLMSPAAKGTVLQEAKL
Description: The small intestine was removed from male CRL: CD BR rats. Intestinal epithelial cells were isolated by the method of Weiser (Weiser, M., 1973, JBC 248, 2536-2541) and the mRNA extracted. Poly A mRNA was purified and double stranded cDNA synthesized. Adapter linkers were ligated followed by size selection (>2 Kb) of the cDNA. The selected fraction of cDNA was ligated into the retroviral expression plasmid pMX, subsequently transformed into bacteria and grown on selective agar at a clonal density of −30,000/plate. Each pool of bacterial clones was collected and plasmid DNA prepared.
Individual pools of cDNA library were transformed into the retroviral packaging cell line BOSC23 and the resulting viral particles, containing the cDNA library, were used to infect the mouse cell line BW5147. Following infection BW5147 cells were stained with compound 1C and analyzed by fluorescent activated cell sorting (FACS). Positive staining cells (−01%) were recovered and re-cultured. The process of recovering positive staining cells was repeated after expansion of the cell population in culture and following the second round of FACS analysis individual cells were isolated by limiting dilution.
Individual clonal populations of cells were subjected to PCR using retroviral vector specific oligonucleotide primers designed to flank the multiple cloning site in which the cDNA library was cloned. […]

Row | cellular receptor identified by expression cloning with the fluorescent compound [1] | Compound | % Inhibition of [14C]-Cholesterol Absorption into Plasma (cholesterol absorption; dose 56 μg/kg in rat bile via intestinal catheter) | % Inhibition of [14C]-Cholesterol Absorption into Plasma (cholesterol absorption; dose 186 μg/kg in rat bile via intestinal catheter) | % Inhibition of [14C]-Cholesterol Absorption into Plasma (cholesterol absorption; dose 30 μg/kg in rat bile via intestinal catheter) | % Inhibition of [14C]-Cholesterol Absorption into Plasma (cholesterol absorption; dose 100 μg/kg in rat bile via intestinal catheter)
1 | – | O=C(CCCCCNC(=O)c1ccc(-c2c3ccc(=O)cc-3oc3cc(O)ccc23)c(C(=O)O)c1)NCC#Cc1ccc(N2C(=O)[C@H](CC[C@H](O)c3ccc(F)cc3)[C@H]2c2ccc(O[C@@H]3O[C@H](C(=O)O)[C@@H](O)[C@H](O)[C@H]3O)cc2)cc1 [IB] | 79% | 88% | – | –
2 | identified as the cellular receptor | [1-O-[4-[1-[4-[3-[[3-[2-[(3,5-DIMETHYL-1H-PYRROL-2-YL-.KAPPA.N)METHYLENE]-2H-PYRROL-5-YL-.KAPPA.N]-1-OXOPROPYL]AMINO]-1-PROPYNYL]PHENYL]-3(R)-[3(S)-HYDROXY-3-(4-FLUOROPHENYL)PROPYL]-2-OXO-4(S)-AZETIDINYL]PHENYL]-BETA-D-GLUCURONATO]DIFLUOROBORATE, HYDROGEN [IC] | – | – | 58% | 80%
